Results from paper PMC10659432 (bioRxiv, 2023).

What was measured:
[1] = target: T1, 5-HT1eR (Homo sapiens, UniProt P28566); experiment: BRET Gi1 activation assay in transfected HEK293T cells, agonism; type: cell-based
Target sequence in this assay (P63096 2-354): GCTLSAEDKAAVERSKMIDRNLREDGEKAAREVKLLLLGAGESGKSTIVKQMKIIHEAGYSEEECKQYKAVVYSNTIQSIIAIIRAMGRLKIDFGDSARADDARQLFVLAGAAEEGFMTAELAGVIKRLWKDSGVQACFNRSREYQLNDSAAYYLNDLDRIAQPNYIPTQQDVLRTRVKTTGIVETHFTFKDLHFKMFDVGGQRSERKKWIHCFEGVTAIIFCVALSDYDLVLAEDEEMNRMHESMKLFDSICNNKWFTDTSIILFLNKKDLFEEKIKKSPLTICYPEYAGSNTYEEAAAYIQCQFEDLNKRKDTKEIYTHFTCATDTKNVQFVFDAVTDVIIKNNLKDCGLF
Target sequence in this assay (P62873 2-340, further chain): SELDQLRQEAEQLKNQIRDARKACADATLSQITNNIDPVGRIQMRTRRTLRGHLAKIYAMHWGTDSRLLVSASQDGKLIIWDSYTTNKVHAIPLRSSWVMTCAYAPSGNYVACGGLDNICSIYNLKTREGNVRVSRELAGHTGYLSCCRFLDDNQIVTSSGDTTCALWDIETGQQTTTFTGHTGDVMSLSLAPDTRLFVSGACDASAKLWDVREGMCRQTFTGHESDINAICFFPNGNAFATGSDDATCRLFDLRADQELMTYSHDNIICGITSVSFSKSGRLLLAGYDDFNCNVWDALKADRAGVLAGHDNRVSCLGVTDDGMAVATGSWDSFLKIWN
Target sequence in this assay (P59768 2-68, further chain): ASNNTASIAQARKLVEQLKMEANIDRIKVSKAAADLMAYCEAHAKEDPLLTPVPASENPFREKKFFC
Target sequence in this assay (P28566 whole entry): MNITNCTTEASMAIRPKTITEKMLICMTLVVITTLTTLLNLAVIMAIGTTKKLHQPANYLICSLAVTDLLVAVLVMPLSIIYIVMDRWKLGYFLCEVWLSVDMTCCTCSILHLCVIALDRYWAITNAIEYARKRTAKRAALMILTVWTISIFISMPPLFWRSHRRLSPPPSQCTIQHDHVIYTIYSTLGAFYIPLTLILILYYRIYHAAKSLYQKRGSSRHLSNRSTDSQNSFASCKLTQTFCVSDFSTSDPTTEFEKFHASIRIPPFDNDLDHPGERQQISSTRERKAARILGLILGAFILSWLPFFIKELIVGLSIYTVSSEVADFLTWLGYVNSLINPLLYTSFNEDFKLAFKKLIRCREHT

[2] = target: T2, 5-HT1FR (Homo sapiens, UniProt P30939); experiment: as above; type: cell-based
[3] = target: T1, 5-HT1eR; experiment: cryoEM structure at […] Å
Target sequence in this assay (P28566 whole entry): as above

[4] = target: T2, 5-HT1FR; experiment: G protein BRET assay in transfected HEK293T cells, agonism; type: cell-based
[5] = target: T1, 5-HT1eR; experiment: cryoEM structure at […] Å; type: cell-based
Target sequence in this assay (P28566 whole entry): as above

[6] = target: T2, 5-HT1FR; experiment: G protein BRET assay in transfected HEK293T cells, full agonism; type: cell-based

T2 sequence (P62873 2-340): as the sequence (P62873 2-340, further chain) above
T2 sequence (P30939 whole entry): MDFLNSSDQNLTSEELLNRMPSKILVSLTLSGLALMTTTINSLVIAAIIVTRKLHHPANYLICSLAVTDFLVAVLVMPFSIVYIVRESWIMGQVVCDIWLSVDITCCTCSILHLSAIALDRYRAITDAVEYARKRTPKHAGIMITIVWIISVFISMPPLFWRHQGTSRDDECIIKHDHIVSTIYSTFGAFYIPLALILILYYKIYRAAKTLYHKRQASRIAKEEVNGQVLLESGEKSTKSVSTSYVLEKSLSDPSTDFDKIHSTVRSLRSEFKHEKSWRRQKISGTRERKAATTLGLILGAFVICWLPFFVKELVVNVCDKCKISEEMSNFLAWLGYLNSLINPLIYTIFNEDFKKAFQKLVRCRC
T2 sequence (P63096 2-354, further chain): as the sequence (P63096 2-354) above
T2 sequence (P59768 2-68, further chain): as the sequence (P59768 2-68, further chain) above

| SMILES | EC50 [1] | EC50 [2] | further results |
| --- | --- | --- | --- |
| CC[C@@H](CO)NC(=O)[C@@H]1C=C2c3cccc4[nH]cc(c34)C[C@H]2N(C)C1 [methylergonovine] | 17 nM | 5.2 nM | – |
| CN1CCN2c3ccccc3Cc3ccccc3C2C1 (stereo not shown) [mianserin] | – | 47.5 nM | EC50 [3]: 123 nM |
| CN1CCN2c3ncccc3Cc3ccccc3C2C1 (stereo not shown) [mirtazapine] | – | – | EC50 [4]: 236 nM |
| Cc1cc(C(C)(C)C)c(O)c(C)c1CC1=NCCN1 [oxymetazoline] | – | 11.3 nM | – |
| CN1CCC(=C2c3ccccc3Sc3ccccc32)CC1 [pimethixene] | 353 nM | 456 nM | – |
| CN1CCC2=C(C1)c1ccccc1Cc1ccccc12 [setiptiline] | – | – | EC50 [5]: 171 nM; EC50 [6]: 64.6 nM |
